Source: paper PMC8348200, “Selective Antifungal Activity and Fungal Biofilm Inhibition of Tryptophan Center Symmetrical Short Peptide” (International Journal of Molecular Sciences, 2021)
Converted amounts (≈) assume the structure as drawn. Where two headings read alike, the source gives them in different places.

Columns and labels:
E. coli 25922 = experiment: microbe, parasite or virus in culture; format: cell-based, Escherichia coli; settings: Escherichia coli, 25922; MHB, 37 °C 24 h, peptides 0.5-128 μM; lowest concentration inhibiting 95% of growth; three independent experiments; read-out: MICs, E. coli 25922
Protocol: (§1) The peptide antimicrobial activity was determined according to the Clinical and Laboratory Standards Institute method, with modifications. Bacteria concentration was measured by ultraviolet spectrophotometer, and fungi concentration was confirmed by McMillan’s turbidimetric method, which compared the fungi solution with the standard McFarland tube in front of the horizontal line on the paper with the naked eye. Because the light has different refract in different liquids. The standard solution is composed of sulfuric acid and barium chloride, which is equivalent to 1*10^8 CFU fungi. After cultivation, the growth of fungi and bacteria was measured by TECAN automatic enzyme label instrument. Briefly, bacterial cells were cultured in MHB until logarithmic phase, yeast colonies cultured in Yeast Peptone Dextrose Agar (YPDA) were picked and diluted in RPMI 1640 growth medium buffered with morpholine propane sulfonic acid (MOPS), and then 50 μL of bacterial or fungi cell solution (0.5–1 × 10^4 CFU/mL) was added to each well of sterile 96-well plates. Each well contained 50 μL of AMPs dissolved in BSA; the final concentrations of the peptides ranged from 0.5 to 128 μM. The lowest concentration of peptide with no microbial growth being observed were measured after incubation at 37 °C for 24 h for bacteria or at 28 °C for 48 h for fungi. Broth with microbial cells and un-inoculated broth were used as positive control and negative controls, respectively.

E. coli UB1005 = experiment: microbe, parasite or virus in culture; format: cell-based, Escherichia coli; settings: Escherichia coli, UB1005; MHB, 37 °C 24 h, peptides 0.5-128 μM; lowest concentration inhibiting 95% of growth; three independent experiments; read-out: MICs, E. coli UB1005
Protocol: as §1

S. aureus 25923 = experiment: microbe, parasite or virus in culture; format: cell-based, Staphylococcus aureus; settings: MHB, 37 °C 24 h, peptides 0.5-128 μM, lowest concentration inhibiting 95% of growth, three independent experiments, read-out: MICs, S. aureus 25923
Protocol: as §1

[1] = test system: C. parapsilosis cgmcc 2.3989; experiment: microbe, parasite or virus in culture; format: cell-based; settings: RPMI 1640 buffered with MOPS, 28 °C 48 h, 0.5-128 μM, read-out: MICs, C. parapsilosis cgmcc 2.3989
Protocol: as §1

[2] = test system: C. tropicalis cgmcc 2.1975; experiment: microbe, parasite or virus in culture; format: cell-based; settings: RPMI 1640 buffered with MOPS, 28 °C 48 h, 0.5-128 μM, read-out: MICs, C. tropicalis cgmcc 2.1975
Protocol: as §1

L. plantarum 7469 = experiment: microbe, parasite or virus in culture; format: cell-based; settings: 37 °C 24 h, peptides 0.5-128 μM, lowest concentration inhibiting 95% of growth, three independent experiments, read-out: MICs, L. plantarum 7469
Protocol: as §1

C. albicans cgmcc 2.2086 [3] = experiment: Resistance development by sequential passaging at sub-MIC; format: cell-based, Candida albicans; settings: 20-passage repeating treatment at sub-lethal concentration
Protocol: Resistance development of C. albicans cgmcc 2.2086 against antifungals was explored using a sequential passaging method, described in our previous study [22]. Briefly, MIC testing was first conducted for P19, fluconazole and amphotericin B. After a 24 h incubation, fungal cells growing in a well with a half-MIC level were harvested and diluted to 0.5–1 × 10^4 CFU/mL using RPMI 1640 growth medium buffered with morpholine propane sulfonic acid (MOPS). The inoculum was subjected to subsequent passage MIC testing, and the process was repeated for 30 days. The fold change in MIC was plotted against the number of passages.

C. albicans cgmcc 2.2086 [4] = experiment: Cytoplasmic membrane depolarization assay (DiSC3-5); format: cell-based, Candida albicans; settings: agents at their MICs, 1 h; 0.4 μM DiSC3-5
Protocol: To analyze membrane disturbances due to P19, melittin, fluconazole or amphotericin B-treated, cells (1 × 10^4 cells/mL) of C. albicans cgmcc 2.2086 were incubated with antimicrobial agents at their respective MICs for 1 h at room temperature; the cells were then harvested by centrifugation and resuspended in 1 mL PBS (pH 7.4). […] Changes in fluorescence were measured from 0 to 800 s with a F-4500 fluorescence spectrophotometer (Hitachi, Japan) at an excitation wavelength of 622 nm and an emission wavelength of 670 nm.

C. albicans cgmcc 2.2086 [5] = experiment: Propidium iodide influx, flow cytometry; format: cell-based, Candida albicans; settings: 1× MIC, 1 h at 28 °C; 10 μg/mL PI
Protocol: Cell membrane permeabilization after treatment with P19, melittin, fluconazole or amphotericin B were also detected via the propidium iodide influx assay. In brief, C. albicans cgmcc 2.2086 cells (1 × 10^4 cells/mL) were treated with antifungal agents for 1 h at 28 °C, then washed, harvested by centrifugation and resuspended in PBS. The cells were treated with 10 μg/mL propidium iodide and incubated for 30 min at room temperature. The uptake of propidium iodide into these cells was analyzed with a FACS flow cytometer (Becton–Dickinson, San Jose, CA) with a laser excitation wavelength of 488 nm. The flow cytometry results can be interpreted as follows. Region Q1 was identified as a living cell region; it represents cells treated with PBS. Q2 region represents the dead cell region. Ignored the surrounding adherent scattered points, the most concentrated scattered points represented the largest cell density. The areas where cells were concentrated represent the state of cells as live or die.

[6] = Lodderomyces parapsilosis, CGMCC2
[7] = Lactiplantibacillus plantarum, 7469

Compound: C[C@@H]1[C@H](O)[C@@H](C)/C=C/C=C/C=C/C=C/C=C/C=C/C=C/[C@H](O[C@@H]2O[C@H](C)[C@@H](O)[C@H](N)[C@@H]2O)C[C@@H]2O[C@](O)(C[C@@H](O)C[C@@H](O)[C@H](O)CC[C@@H](O)C[C@@H](O)CC(=O)O[C@H]1C)C[C@H](O)[C@H]2C(=O)O [Amphotericin B, reference compound]
- MIC (E. coli 25922): > 128 µM
- MIC (E. coli UB1005): > 128 µM
- MIC (S. aureus 25923; Staphylococcus aureus, 25923): > 128 µM
- MIC [1, 6]: 2 µM (≈ 1.85 µg/mL)
- MIC ([2]; Candida tropicalis, CGMCC2): 1 µM (≈ 0.924 µg/mL)
- MIC (L. plantarum 7469; [7]): > 128 µM
- increase in MIC value compared with the first passage (C. albicans cgmcc 2.2086 [3]): 1024 fold
- membrane depolarization (DiSC3-5 fluorescence intensity) (C. albicans cgmcc 2.2086 [4]): minor change of membrane depolarization

Compound: CC[C@H](C)[C@H](NC(=O)CN)C(=O)NCC(=O)N[C@@H](C)C(=O)N[C@H](C(=O)N[C@@H](CC(C)C)C(=O)N[C@@H](CCCCN)C(=O)N[C@H](C(=O)N[C@@H](CC(C)C)C(=O)N[C@H](C(=O)N[C@H](C(=O)NCC(=O)N[C@@H](CC(C)C)C(=O)N1CCC[C@H]1C(=O)N[C@@H](C)C(=O)N[C@@H](CC(C)C)C(=O)N[C@H](C(=O)N[C@@H](CO)C(=O)N[C@@H](Cc1c[nH]c2ccccc12)C(=O)N[C@H](C(=O)N[C@@H](CCCCN)C(=O)N[C@@H](CCCNC(=N)N)C(=O)N[C@@H](CCCCN)C(=O)N[C@@H](CCCNC(=N)N)C(=O)N[C@@H](CCC(N)=O)C(=O)N[C@@H](CCC(N)=O)C(N)=O)[C@@H](C)CC)[C@@H](C)CC)[C@@H](C)O)[C@@H](C)O)C(C)C)C(C)C [Melittin, reference compound]
- MIC (S. aureus 25923): 2 µM (≈ 5.69 µg/mL)
- MIC [1]: 2 µM (≈ 5.69 µg/mL)
- MIC [2]: 2 µM (≈ 5.69 µg/mL)
- MIC (L. plantarum 7469): >128 µM
- increase of PI fluorescent signal (C. albicans cgmcc 2.2086 [5]): more than 90%

Compound: OC(Cn1cncn1)(Cn1cncn1)c1ccc(F)cc1F [Fluconazole, reference compound]
- MIC (E. coli 25922): > 128 µM
- MIC (E. coli UB1005): > 128 µM
- MIC (S. aureus 25923; Staphylococcus aureus, 25923): > 128 µM
- MIC [1, 6]: 4 µM (≈ 1.23 µg/mL)
- MIC ([2]; Candida tropicalis, CGMCC2): 4 µM (≈ 1.23 µg/mL)
- MIC (L. plantarum 7469; [7]): > 128 µM
- increase in MIC value compared with the first passage (C. albicans cgmcc 2.2086 [3]): 1024 fold
- membrane depolarization (DiSC3-5 fluorescence intensity) (C. albicans cgmcc 2.2086 [4]): minor change of membrane depolarization
